Data on 1 compound can be found in BindingDB's records for doi:10.1016/s0014-2999(97)01510-0 (Hospital Saint-Antoine, 1998).

The experiment has as its target T1, 5'-nucleotidase (Rattus norvegicus, UniProt P21588).
T1 sequence (P21588 whole entry): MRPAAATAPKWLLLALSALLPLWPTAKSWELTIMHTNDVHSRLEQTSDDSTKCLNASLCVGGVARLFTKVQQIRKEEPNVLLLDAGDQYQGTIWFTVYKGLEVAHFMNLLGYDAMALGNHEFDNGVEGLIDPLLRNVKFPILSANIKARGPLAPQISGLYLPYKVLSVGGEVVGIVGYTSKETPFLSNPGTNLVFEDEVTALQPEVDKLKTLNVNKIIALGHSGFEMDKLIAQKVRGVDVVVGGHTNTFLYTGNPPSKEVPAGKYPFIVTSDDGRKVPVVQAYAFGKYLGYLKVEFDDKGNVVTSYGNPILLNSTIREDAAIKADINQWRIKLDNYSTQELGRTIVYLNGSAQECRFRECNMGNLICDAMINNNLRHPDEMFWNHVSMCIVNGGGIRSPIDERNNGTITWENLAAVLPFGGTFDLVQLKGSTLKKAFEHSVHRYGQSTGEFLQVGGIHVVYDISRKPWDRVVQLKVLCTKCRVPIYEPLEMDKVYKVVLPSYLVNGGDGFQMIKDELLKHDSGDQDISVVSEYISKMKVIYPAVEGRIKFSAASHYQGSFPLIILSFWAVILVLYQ

What is called Ki is the equilibrium dissociation constant of an inhibitor or competing ligand from its target. Read a low Ki as higher affinity. Regarding `COc1cccc(OC)c1-c1cc(C(=O)NC2(C(=O)O)C3CC4CC(C3)CC2C4)nn1-c1ccnc2cc(Cl)ccc12` (stereo unspecified), the Ki was found to be 0.124 µM.
